Experimental data: US10363229B2, “Methods and compositions for the treatment of cancer” (priority 2009, dated 2019)

Legend:
[1] = system: microtubules in melanoma cells; assay: Immunofluorescence of microtubules, incl. vinblastine stability test; type: cell-based, mouse; conditions: 10^−7 M vinblastine, no methyl sulfone
Description: Cells were plated in 6-100 mm tissue culture plates, each containing 1 polylysine-coated 10-well slide, or plated onto polylysine-coated coverslips. Once cells were approximately 50% confluent, 2% methyl sulfone was added to cells for 10, 30, 60, 90, and 120 minutes. At each time point cells were placed in microtubule stabilizing buffer ( ) for 10 minutes followed by incubation in −20° C. methanol for 5 minutes. Cells were washed twice in 0.1% Triton X-100 in PBS at room temperature, then incubated with mouse monoclonal anti-alpha-tubulin antibody (Santa Cruz Biotech, Calif.; diluted 1/200 in 1% BSA/PBS) for 1.5 hours. Cells were washed 5 times in 0.1% Triton X-100/PBS, 3 minutes each. Cells were incubated with secondary antibody (Alexa Fluor 568 rabbit anti-mouse antibody; diluted 1/100 in 1%/PBS) for 30 minutes in the dark. Cells were washed five times in 0.1% Triton X-100/PBS, three minutes each. Cells were washed two times in PBS at 2 minute intervals and incubated with DAPI (1 μg/ml in PBS) for 5 minutes at room temperature and in the dark. Cells were washed in PBS for one minute. SlowFade was added to glass slides, coverslips were placed cell side down and sealed with nail polish. Microtubules were viewed at the Center for Cell Analysis and Modeling, University of Connecticut Health Center, Farmington, Conn., with an Axioplan CCD Microscope equipped with a 40×1.3 NA FL objective lens and Photometrics PXL-EEV37 high speed digital cooled CCD camera via Metamorph image acquisition and analysis software (Universal Imaging Corp., Downington, Pa.).
One assay to test stability of microtubules is to give cells increasing concentrations of a microtubule-disassembly drug and use immunofluorescence microscopy to assess microtubule lengths (Caron et al). A higher concentration of drug will be required to disassemble the more stabilized microtubules. We used different concentrations of the anti-microtubule drug, vinblastine, to assess microtubule stability in control cells and cells incubated with 2% methyl sulfone.

[2] = system: CEM cells, leukemic T-cell lymphocytes; assay: Apoptosis of leukemic lymphocytes, FITC-annexinV/propidium iodide microscopy; type: cell-based, human; conditions: 10^−7 M VNB, 20 hours
Description: (§1) Cloudman S-91 mouse melanoma cells (sub-clone M-3, CCL 53.1; American Type Culture Collection, Rockville, Md.) were grown in RMPI medium supplemented with 10% fetal bovine serum (Invitrogen, Inc) and 5% penicillin-streptomycin (Invitrogen, Inc). Mouse breast cancer cells (66Cl-1; American Type Culture Collection, Rockville, Md.) that are estrogen-receptor negative were grown in DMEM medium supplemented with 10% fetal bovine serum (Invitrogen, Inc) and 5% penicillin/streptomycin (Invitrogen, Inc). Human T-cell leukemic lymphocytes (CEM; American Type Culture Collection, Rockville, Md.) were grown in MEM medium supplemented with 7% fetal calf serum. Cultures were passaged twice a week.
CEM cells, leukemic T-cell lymphocytes obtained from a child with acute lymphocytic leukemia, were maintained in Petri dishes in MEM (minimal essential medium) with 7% fetal calf serum in a 5% CO2 incubator at 37° C. For experiments, methyl sulfone was added to the medium at concentrations from 0-6.0%. In control cells, no methyl sulfone was added. Cells (2×10^6 per ml) were incubated for 20 hrs in the presence or absence of methyl sulfone, and then assayed for apoptosis using FITC-annexinV/propidium iodide microscopy. Methyl sulfone was also compared to the anti-microtubule drug, vinblastine. Vinblastine (VNB) and its derivative, vincristine, are standard treatments for acute lymphocytic leukemia, as well as other cancers. We used the concentration of VNB that is found in the blood of subjects being treated with this drug (10^−7 M) (6,7).

[3] = system: Cloudman S-91 mouse melanoma cells (sub-clone M-3); assay: Annexin V-FITC/propidium iodide apoptosis assay in melanoma cells; type: cell-based
Description: as §1
Early and late apoptosis was assessed with the Annexin V-FITC Apoptosis Detection Kit from PharMingen (Becton-Dickinson, San Diego, Calif.). Images were obtained at the Center for Cell Analysis and Modeling, University of Connecticut Health Center, Farmington, Conn., with an Axioplan CCD Microscope equipped with a 40×1.3 NA FL objective lens and Photometrics PXL-EEV37 high speed digital cooled CCD camera via Metamorph image acquisition and analysis software (Universal Imaging Corp., Downington, Pa.).
(§2) M3 Cloudman melanoma cells were plated into culture dishes containing RPMI medium. After 24 hour media was changed to control medium (no drug) or to media containing different concentrations of methyl sulfone (1-10% methyl sulfone in RPMI medium). Cells were examined by live cell video microscopy immediately after adding drug and every 24 hours up to 144 hours.
Briefly, melanoma cells (Cloudman M3 cell line) were plated at 10^5 cells/ml in RPMI medium. After 24 hours, medium was replaced with RPMI containing different concentrations (grams/volume) of MMS, MES and EES. After 24 hours, apoptosis was assayed using the Becton-Dickinson Annexin V-FITC/Propidium Iodide Kit and a Nikon fluorescent microscope as described by the manufacturer.

[4] = system: M3 Cloudman melanoma cells; assay: Live cell video microscopy of melanoma cells (morphology, contact inhibition); type: cell-based, mouse; conditions: equimolar concentration substituted for 2% methyl sulfone
Description: as §1
Cells were plated on 35 mm tissue culture dishes at concentration of 10^5 cells/plate, unless stated otherwise, and incubated at 37° C., 5% CO2. After 24 hours, methyl sulfone (0-10% in medium) was added to appropriate plates and immediately videotaped with a Nikon TE300 inverted microscope equipped with a 10×0.25 NA Plan Achromat objective lens. Control cells (no drug) were videotaped as described above. Time series (10 min) of phase contrast images were acquired at a video rate of 1 frame/5 s with a Watec-902B CCD video camera (Watec Corp., Japan) via the stream acquisition option of Metamorph image acquisition and analysis software (Universal Imaging Corp., Downington, Pa.). During recordings, cells were kept at 37° C. with 10 mM Hepes, pH 7.4. Time series of cells +/−2% methyl sulfone were obtained every 24-48 hours for up to 6 weeks.
as §2
The possibility that the data generated from treating cells with methyl sulfone was a nonspecific effect due to changes in extracellular osmolarity was considered. To test this possibility an equimolar concentration of urea was substituted for 2% methyl sulfone; urea has a chemical structure and dipolar moment that is similar to methyl sulfone. […] We next replaced 2% methyl sulfone with an equimolar concentration of dimethyl sulfoxide (DMSO).

SMILES	window of concentrations between killing cancer cells and harming normal cells [3]	effect on melanoma cells of osmolarity control substance [4]	further results
CC[C@]1(O)C[C@@H]2CN(CCc3c([nH]c4ccccc34)[C@@](C(=O)OC)(c3cc4c(cc3OC)N(C)[C@H]3[C@@](O)(C(=O)OC)[C@H](OC(C)=O)[C@]5(CC)C=CCN6CC[C@]43[C@@H]65)C2)C1 [vinblastine, reference compound]			microtubules in control cells [1]: largely gone; apoptotic leukemic cells [2]: 48%
CCS(=O)(=O)CC [EES, ethyl ethyl sulfone, reference compound]	narrow differential		
C[S+](C)[O-] [DMSO, dimethyl sulfoxide, reference compound]		had no effect	
CCS(C)(=O)=O [MES, methyl ethyl sulfone, reference compound]	narrow differential		
NC(N)=O [urea, reference compound]		induced necrotic death	
